Laboratory results published in publication PMC3033228 (Clinical colorectal cancer, 2010).
Read-outs that look alike come from different tables or passages of the source.

Legend:
[1] = 5-Fluorouracil plasma pharmacokinetics; assay type: in vivo, human; details: for 5-Fluorouracil Cl: DL 3 (erlotinib 150 mg), individual values (n = 2)
[2] = human, in vivo
[3] = population pharmacokinetic analysis; cited from earlier work
patients = details: cited from earlier work
CRC = details: cited from earlier work
clinical = details: human, in vivo; for Cmax: Erlotinib Cmax
[4] = system: patients with advanced colorectal cancer; assay: Phase I toxicity assessment; details: with FOLFOX4 with or without bevacizumab, oral, advanced CRC

With `O=c1[nH]cc(F)c(=O)[nH]1` [5-Fluorouracil] the “5-Fluorouracil Cl” value ([1]; column Combination) was 313.2 L/h, the “5-Fluorouracil Cl” value ([1]; column Single Agent) was 217.4 L/h and the “5-Fluorouracil systemic clearance, effect of co-administration of erlotinib” value ([1]; P = .97) was “not markedly affected”.
For `C#Cc1cccc(Nc2ncnc3cc(OCCOC)c(OCCO)cc23)c1` [OSI-420], the “OSI-420 Cmax” value ([2]; 50 mg) was 60.8 ± 16.1 (3) ng/mL, the “OSI-420 Tmax” value ([2]; 50 mg) was 2.00 (1.08–2.00, 3) hour and the “OSI-420 Cmax” value ([2]; 100 mg) was 67.8 ± 49.1 (8) ng/mL. The “OSI-420 Tmax” value ([2]; 100 mg) was 3.00 (1.03–25.03, 8) hour, the “OSI-420 Cmax” value ([2]; 150 mg) was 193.2 ± 92.6 (3) ng/mL and the “OSI-420 Tmax” value ([2]; 150 mg) was 9.95 (2.07–24.08, 3) hour. For the same compound, the “OSI-420 exposure as share of erlotinib exposure” value [3] was “approximately 10%”.
For `C#Cc1cccc(Nc2ncnc3cc(OCCOC)c(OCCOC)cc23)c1` [erlotinib], the “Dose level at which grade 3 diarrhea occurred” value (patients) is given as 200 mg, the Patients experiencing diarrhea (patients; erlotinib 100 mg/day) is given as 25% and the Patients experiencing diarrhea (patients; erlotinib 150 mg/day) is given as 86%. The “Response rates (RRs) of monotherapy trials” value (CRC) was “negligible”, the Tmax (clinical; 50 mg, Erlotinib Tmax) was 1.08 h and the Cmax (clinical; 100 mg) was 0.985 ± 0.576 µg/mL. For the same compound, the Cmax (clinical; 150 mg) was 1.96 ± 1.16 µg/mL and the “Maximum tolerated dose (MTD) of erlotinib” value [4] was 100 mg daily.
For `COc1cc2ncnc(Nc3ccc(F)c(Cl)c3)c2cc1OCCCN1CCOCC1` [gefitinib], the “Response rates (RRs) of monotherapy trials” value (CRC) is listed as “negligible”.
